The target of experiment [1] is hmGluR5a receptor (Homo sapiens (Human), UniProt P41594). Description: Calcium Flux Assay. It is filed as cell-based. Conditions: hmGluR5a/L38-20 cells, glutamate-evoked [Ca2+]i. How it is done:
The activity of compounds was examined against the hmGluR5a receptor stably expressed in mouse fibroblast Ltk− cells (the hmGluR5a/L38-20 cell line). See generally Daggett et al., Neuropharmacology 34:871-886 (1995). Receptor activity was detected by changes in intracellular calcium ([Ca^2+]i) measured using the fluorescent calcium-sensitive dye, fura-2. hmGluR5a/L38-20 cells were plated onto 96-well plates, and loaded with 3 µM fura-2 for 1 h. Unincorporated dye was washed from the cells, and the cell plate was transferred to a custom-built 96-channel fluorimeter (SIBIA-SAIC, La Jolla, Calif.) which is integrated into a fully automated plate handling and liquid delivery system. Cells were excited at 350 and 385 nm with a xenon source combined with optical filters. Emitted light was collected from the sample through a dichroic mirror and a 510 nm interference filter and directed into a cooled CCD camera (Princeton Instruments). Image pairs were captured approximately every 1 s, and ratio images were generated after background subtraction. After a basal reading of 20 s, an EC80 concentration of glutamate ([…]) was added to the well, and the response evaluated for another 60 s. The glutamate-evoked increase in [Ca^2+]i in the presence of the screening compound was compared to the response of glutamate alone (the positive control).
In general terms: A change in cytosolic calcium serves as a functional read-out for many receptors and channels.

In experiment [2] the target is metabotropic glutamate receptor subtype 5 (Rattus norvegicus (Rat), UniProt P31424). The experiment can be described thus: [3H]-mGluR5 Antagonist Binding to Rodent Brain Membranes. As for the experimental part: In accordance with Anderson J J, Rao S P, Rowe B, Giracello D R, Holtz G, Chapman D F, Tehrani L, Bradbury M J, Cosford N D, Varney M A, [^3H]Methoxymethyl-3-[(2-methyl-1,3-thiazol-4-yl)ethynyl]pyridine binding to metabotropic glutamate receptor subtype 5 in rodent brain: in vitro and in vivo characterization. J Pharmacol Exp Ther. 2002 December; 303 (3):1044-51, membranes were prepared (as described in Ransom R W and Stec N L (1988) Cooperative modulation of [^3H]MK-801 binding to the N-methyl-D-aspartate receptor-ion channel complex by L-glutamate, glycine, and polyamines. J Neurochem 51:830-836) using whole rat brain, or mGlu5^+/+ or mGlu5^−/− whole mouse brain.
Binding assays were performed as described in Schaffhauser H, Richards J G, Cartmell J, Chaboz S, Kemp J A, Klingelschmidt A, Messer J, Stadler H, Woltering T and Mutel V (1998) In vitro binding characteristics of a new selective group II metabotropic glutamate receptor radioligand, [^3H]LY354740, in rat brain. Mol Pharmacol 53:228-233) at room temperature with slight modifications. Briefly, membranes were thawed and washed once with assay buffer (50 mM HEPES, 2 mM MgCl2, pH 7.4), followed by centrifugation at 40,000×g for 20 min. The pellet was resuspended in assay buffer and briefly homogenized with a Polytron.
For protein linearity experiments, increasing concentrations of membrane protein were added to 96-well plates in triplicate and binding was initiated by addition of 20 nM [^3H]methoxymethyl-3-[(2-methyl-1,3-thiazol-4-yl)ethynyl]pyridine. The assay was incubated for 2 h and non-specific binding was determined using 10 μM MPEP. The binding was terminated by rapid filtration through glass-fiber filters (Unifilter-96 GF/B plate, Packard) using a 96-well plate Brandel cell harvester. Following addition of scintillant, the radioactivity was determined by liquid scintillation spectrometry. Protein measurements were performed by BioRad-DC Protein assay using bovine serum albumin as the standard.
Saturation binding experiments were performed in triplicate with increasing concentrations of [^3H]methoxymethyl-3-[(2-methyl-1,3-thiazol-4-yl)ethynyl]pyridine (1 pM to 100 nM). The time course of association was measured by the addition of 10 nM [^3H]methoxymethyl-3-[(2-methyl-1,3-thiazol-4-yl)ethynyl]pyridine to the membranes at different time points (0-240 min), followed by filtration. Dissociation was measured by the addition of 100 μM unlabeled methoxymethyl-3-[(2-methyl-1,3-thiazol-4-yl)ethynyl]pyridine at different time points to membranes previously incubated for 3 h with 10 nM [^3H]methoxymethyl-3-[(2-methyl-1,3-thiazol-4-yl)ethynyl]pyridine. For competition experiments, 100 μg membrane protein and 10 nM [^3H]methoxymethyl-3-[(2-methyl-1,3-thiazol-4-yl)ethynyl]pyridine was added to wells containing increasing concentration of the test compound in duplicate (methoxymethyl-3-[(2-methyl-1,3-thiazol-4-yl)ethynyl]pyridine or MPEP). [^3H]-3-Methoxy-5-(pyridin-2-ylethynyl)pyridine may also be used as the radioligand in the procedure described above. (See, Cosford, N. D. P.; Roppe, J.; Tehrani, L.; Seiders, T. J.; Schweiger, E. J. et al. [3H]-Methoxymethyl-MTEP and [3H]-methoxy-PEPy): Potent and selective radioligands for the Metabotropic Glutamate Subtype 5 (mGlu5) Receptor. Bioorg. Med. Chem. Lett. 2003, 13, 351-354.)

Structures can show the parent of a compound that is named as a salt.

metabotropic glutamate receptor subtype 5, sequence (P31424 21-1203): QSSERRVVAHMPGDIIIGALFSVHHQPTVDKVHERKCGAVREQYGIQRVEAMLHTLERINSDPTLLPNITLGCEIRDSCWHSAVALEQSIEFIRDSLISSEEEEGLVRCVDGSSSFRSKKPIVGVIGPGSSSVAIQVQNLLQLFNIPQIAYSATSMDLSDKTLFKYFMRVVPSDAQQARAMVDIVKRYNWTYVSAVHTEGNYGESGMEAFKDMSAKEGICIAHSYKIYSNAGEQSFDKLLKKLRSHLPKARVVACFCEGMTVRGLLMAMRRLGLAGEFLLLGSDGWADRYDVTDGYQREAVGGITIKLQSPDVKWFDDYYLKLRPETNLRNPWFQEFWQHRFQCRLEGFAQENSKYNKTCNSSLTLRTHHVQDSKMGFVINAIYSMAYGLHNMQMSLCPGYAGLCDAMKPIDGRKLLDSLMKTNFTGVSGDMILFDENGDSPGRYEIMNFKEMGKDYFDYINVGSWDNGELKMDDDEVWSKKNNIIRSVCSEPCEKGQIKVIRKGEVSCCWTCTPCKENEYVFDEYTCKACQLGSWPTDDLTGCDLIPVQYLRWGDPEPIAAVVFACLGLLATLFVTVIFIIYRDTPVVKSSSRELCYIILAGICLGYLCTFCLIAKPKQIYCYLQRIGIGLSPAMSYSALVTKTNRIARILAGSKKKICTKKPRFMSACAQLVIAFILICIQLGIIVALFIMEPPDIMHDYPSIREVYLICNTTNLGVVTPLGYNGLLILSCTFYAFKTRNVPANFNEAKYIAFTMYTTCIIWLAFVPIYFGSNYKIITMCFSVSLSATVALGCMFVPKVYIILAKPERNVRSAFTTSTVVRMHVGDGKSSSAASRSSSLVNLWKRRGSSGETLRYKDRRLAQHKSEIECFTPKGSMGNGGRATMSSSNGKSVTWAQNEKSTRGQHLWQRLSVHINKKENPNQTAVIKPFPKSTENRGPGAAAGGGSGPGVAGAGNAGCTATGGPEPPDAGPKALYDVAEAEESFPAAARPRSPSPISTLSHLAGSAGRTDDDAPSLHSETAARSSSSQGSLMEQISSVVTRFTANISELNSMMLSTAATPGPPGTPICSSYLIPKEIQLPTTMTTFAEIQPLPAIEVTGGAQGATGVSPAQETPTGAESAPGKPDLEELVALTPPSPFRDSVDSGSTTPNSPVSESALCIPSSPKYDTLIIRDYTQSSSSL
hmGluR5a receptor, sequence (P41594 other isoform, or with tags, fused parts or gaps): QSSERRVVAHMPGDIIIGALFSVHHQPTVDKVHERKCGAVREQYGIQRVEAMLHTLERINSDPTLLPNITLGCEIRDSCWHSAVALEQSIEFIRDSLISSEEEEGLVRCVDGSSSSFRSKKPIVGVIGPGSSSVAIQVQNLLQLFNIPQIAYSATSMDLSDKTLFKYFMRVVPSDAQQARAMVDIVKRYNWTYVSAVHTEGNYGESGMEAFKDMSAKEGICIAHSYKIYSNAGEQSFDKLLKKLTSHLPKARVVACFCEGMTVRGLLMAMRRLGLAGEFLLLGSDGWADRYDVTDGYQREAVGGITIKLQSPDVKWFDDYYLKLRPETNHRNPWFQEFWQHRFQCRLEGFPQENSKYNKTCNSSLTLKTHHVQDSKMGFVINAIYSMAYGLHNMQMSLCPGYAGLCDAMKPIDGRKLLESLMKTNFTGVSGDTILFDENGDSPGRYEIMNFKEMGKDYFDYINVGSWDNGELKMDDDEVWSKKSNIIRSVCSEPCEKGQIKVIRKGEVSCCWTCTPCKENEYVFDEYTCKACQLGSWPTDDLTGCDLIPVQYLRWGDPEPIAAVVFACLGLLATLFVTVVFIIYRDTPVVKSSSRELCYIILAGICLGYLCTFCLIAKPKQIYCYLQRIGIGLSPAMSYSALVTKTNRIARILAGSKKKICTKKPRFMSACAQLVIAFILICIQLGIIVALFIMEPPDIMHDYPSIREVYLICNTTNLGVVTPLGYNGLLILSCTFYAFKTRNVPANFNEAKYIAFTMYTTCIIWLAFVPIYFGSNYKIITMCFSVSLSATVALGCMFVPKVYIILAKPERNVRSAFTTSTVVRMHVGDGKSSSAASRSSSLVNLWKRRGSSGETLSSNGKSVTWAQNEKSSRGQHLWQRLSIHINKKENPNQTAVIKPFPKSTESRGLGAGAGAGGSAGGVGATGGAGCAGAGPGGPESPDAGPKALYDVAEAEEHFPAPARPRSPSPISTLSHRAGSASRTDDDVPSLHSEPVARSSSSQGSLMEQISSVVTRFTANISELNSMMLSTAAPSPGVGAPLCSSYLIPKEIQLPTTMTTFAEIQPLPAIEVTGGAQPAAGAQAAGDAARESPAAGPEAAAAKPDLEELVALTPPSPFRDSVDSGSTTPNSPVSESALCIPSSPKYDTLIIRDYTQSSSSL

Take `Cc1nc(C#Cc2ccc(-c3ccccc3F)nc2)cs1` [Example 2, 2-(2-fluorophenyl)-5-[(2-methyl-1,3-thiazol-4-yl)ethynyl]pyridine]: the IC50 (commonly the point on the concentration scale where inhibition reaches its midpoint) in experiment [1] came to 1 nM. The affinity in experiment [2] corresponds to a Ki of 2 nM.

Regarding `Cc1nc(C#Cc2ccc(-c3cccc(F)c3)nc2)cs1` [Example 3, 2-(3-fluorophenyl)-5-[(2-methyl-1,3-thiazol-4-yl)ethynyl]pyridine], the IC50 in experiment [1] turned out to be 0.9 nM. For the same molecule, the Ki (commonly the equilibrium dissociation constant of an inhibitor or competing ligand from its target) in experiment [2] was 2.7 nM.

For `Cc1nc(C#Cc2ccc(-c3ccccc3C#N)nc2)cs1` [Example 4, 2-{5-[(2-methyl-1,3-thiazol-4-yl)ethynyl]pyridin-2-yl}benzonitrile], the IC50 in experiment [1] is 2.2 nM.

Consider `Cc1nc(C#Cc2ccc(-c3ccccc3C)nc2)cs1` [Example 5, 2-(2-methylphenyl)-5-[(2-methyl-1,3-thiazol-4-yl)ethynyl]pyridine], for which, in experiment [1], the IC50 was 6.3 nM. Moreover, the Ki in experiment [2] turned out to be 1 nM.

Consider `COc1ccc(F)cc1-c1ccc(C#Cc2csc(C)n2)cn1` [Example 6, 2-(5-fluoro-2-methoxyphenyl)-5-[(2-methyl-1,3-thiazol-4-yl)ethynyl]pyridine], for which, in experiment [1], the IC50 was determined as 4.4 nM. The Ki in experiment [2] turned out to be 1.2 nM.

With `Cc1nc(C#Cc2ccc(-c3ccccc3Cl)nc2)cs1` [Example 7, 2-(2-chlorophenyl)-5-[(2-methyl-1,3-thiazol-4-yl)ethynyl]pyridine], in experiment [1], the IC50 was 1.1 nM. Also, the Ki in experiment [2] came out at 0.7 nM.

Take `COc1ccccc1-c1ccc(C#Cc2csc(C)n2)cn1` [Example 8, 2-(2-methoxyphenyl)-5-[(2-methyl-1,3-thiazol-4-yl)ethynyl]pyridine]: the IC50 in experiment [1] is 1 nM. The same molecule yielded a Ki in experiment [2] of 0.9 nM.

Consider `Cc1nc(C#Cc2ccc(-c3ccc(F)cc3C)nc2)cs1` [Example 9, 2-(4-fluoro-2-methylphenyl)-5-[(2-methyl-1,3-thiazol-4-yl)ethynyl]pyridinium trifluoroacetate], for which the IC50 in experiment [1] is 1.1 nM.

As to `COc1c(F)cc(F)cc1-c1ccc(C#Cc2csc(C)n2)cn1` [Example 10, 2-(3,5-difluoro-2-methoxyphenyl)-5-[(2-methyl-1,3-thiazol-4-yl)ethynyl]pyridinium trifluoroacetate], in experiment [1], the IC50 was found to be 0.7 nM.

For `COc1cc(F)ccc1-c1ccc(C#Cc2csc(C)n2)cn1` [Example 11, 2-(4-fluoro-2-methoxyphenyl)-5-[(2-methyl-1,3-thiazol-4-yl)ethynyl]pyridinium trifluoroacetate], in experiment [1], the IC50 was 1.3 nM.

Take `Cc1nc(C#Cc2ccc(-c3cc(F)ccc3C)nc2)cs1` [Example 12, 2-(5-fluoro-2-methylphenyl)-5-[(2-methyl-1,3-thiazol-4-yl)ethynyl]pyridinium trifluoroacetate]: the IC50 in experiment [1] amounted to 0.6 nM. In experiment [2], this molecule returned a Ki of 1.1 nM.

Take `Cc1nc(C#Cc2cnc(-c3ccccc3C)nc2)cs1` [Example 13, 2-(2-methylphenyl)-5-[(2-methyl-1,3-thiazol-4-yl)ethynyl]pyrimidine]: in experiment [1], the IC50 stood at 0.6 nM. Moreover, the Ki in experiment [2] worked out at 0.6 nM.

For `CSc1ccccc1-c1ncc(C#Cc2csc(C)n2)cn1` [Example 14, 5-[(2-methyl-1,3-thiazol-4-yl)ethynyl]-2-[2-(methylthio)phenyl]pyrimidine], the IC50 in experiment [1] is 0.8 nM. For the same molecule, the Ki in experiment [2] came out at 7.5 nM.

Regarding `Cc1nc(C#Cc2cnc(-c3ccccc3Cl)nc2)cs1` [Example 15, 2-(2-chlorophenyl)-5-[(2-methyl-1,3-thiazol-4-yl)ethynyl]pyrimidine], the IC50 in experiment [1] is 1 nM. This molecule gave an inhibition constant (Ki) in experiment [2] of 2.6 nM.

For `Cc1nc(C#Cc2cnc(-c3cccc(C)c3C)nc2)cs1` [Example 16, 2-(2,3-dimethylphenyl)-5-[(2-methyl-1,3-thiazol-4-yl)ethynyl]pyrimidine], the IC50 in experiment [1] came out at 0.4 nM. Affinity in experiment [2] was put at a Ki of 8.6 nM.

For the molecule `Cc1nc(C#Cc2ccc(-c3cccc(-n4cccn4)c3)nc2)cs1` [Example 87], the IC50 in experiment [1] was determined as 2 nM.

`Cc1nc(C#Cc2cnc(-c3ccccc3F)nc2)cs1` [Example 106]: affinity in experiment [2] was put at a Ki of 6 nM.

Source of the values: patent US8609852B2, “Thiazolyl mGluR5 antagonists and methods for their use” (Merck Sharp & Dohme Corp., priority 2004, dated 2013).
